Test results taken from US8921348B2, “Optimizing mifepristone levels in plasma serum of patients suffering from mental disorders treatable with glucocorticoid receptor antagonists” (Corcept Therapeutics, priority 2007, dated 2014).

Assays:
[1] = tested on: patients with major depressive disorder with psychotic features (PMD); assay: Phase III trials of CORLUX plus antidepressant vs. placebo: responders on BPRS Positive Symptom Subscale; format: in vivo, human
Excerpt: This example provides a randomized, double-blind, placebo-controlled, parallel group study of the safety and efficacy of three dose levels of CORLUXTM (Mifepristone) plus an antidepressant vs. placebo plus an antidepressant in the treatment of psychotic symptoms in patients with major depressive disorder with psychotic features (PMD). The study was a Phase III trial performed using several investigators at several different sites. […] Patients eligible for randomization were male or nonpregnant female outpatients, and inpatients, if clinically required, with a diagnosis of Major Depressive Disorder with Psychotic Features (DSM-IV 296.24 or 296.34), and a BPRS Positive Symptom subscale score of at least 12, a BPRS total score of at least 38, and a HAMD-24 score of at least 20. CORLUX was used as the test drug at 300 (1×300 mg tablet), 600 (2×300 mg tablet), and 1200 mg (4×300 mg tablet) once a day by mouth for the initial 7 days. […] The reference drug was a placebo (1, 2, or 4 tablets matching CORLUX 300 mg tablets) once a day by mouth for the initial 7 days. […] An antidepressant selected from a prescribed list was started simultaneously with the study drug, and continued to the end of the trial. BPRS and HAM-D assessments were performed at Screen and on Days 0, 7, 14, 28, 42, and 56, and at early termination when it occurred. Safety visits occurred at Days 21 and 35. The patients who are seen as outpatients made daily visits to the clinic setting to receive study medications for the first 7 days. If clinically necessary, a patient was treated as an inpatient. In addition to the selected antidepressant, continuing benzodiazepines was allowed up to specified dose levels, but antipsychotics, mood stabilizers and additional antidepressants were not allowed during the entire study. If the patient was at imminent risk to him/herself and/or others and therefore could not be adequately treated within the study (e.g., required ECT, new or re-hospitalization for PMD, antipsychotics or mood stabilizers, or a second antidepressant), the patient underwent an early termination visit on the day that rescue therapy was started and completed final efficacy evaluations. If early termination occurred prior to day 35, the patient returned for a safety follow up visit at day 35. […] The secondary endpoints were: (1) the proportion of responders at days 7 and 28; and (2) the mean change from baseline to day 56 in the HAM-D-24 total score. […] This example provides an international, double-blind, placebo-controlled study of the efficacy and safety of CORLUXTM (Mifepristone) vs. placebo in the treatment of psychotic symptoms in patients with Psychotic Major Depression (PMD). The study was a Phase III trial performed using several investigators at several different international sites. […] The number of patients was 220 evaluable subjects. […] CORLUX was administered in a 600 mg dose once a day by mouth for the initial 7 days (administered as two 300 mg tablets). Reference drug, dose, dosage regimen, route of administration: Matching placebo was administered once a day by mouth for the initial 7 days. […] After the 7-day dosing period, patients were evaluated at Days 14, 21, 28, 35, 42 and 56. An antidepressant was administered simultaneously with study drug, and continued to the end of the trial (Day 56). BPRS and HAMD-24 assessments were performed at Screen and on Days 0, 7, 14, 28, 42 and 56, or at early termination. A safety visit occurred on Days 21 and 35, and at study termination on Day 56. Subjects treated on an outpatient basis made daily visits to the clinic to receive study medication for the first 7 days. Subjects were treated on an inpatient basis for as long as deemed clinically necessary by the investigator. In addition to the selected antidepressant, concomitant benzodiazepine treatment was allowed up to specified dose levels. Antipsychotics, mood stabilizers and a second antidepressant were prohibited during the entire study. […]

[2] = Mifepristone blood serum/plasma level after the same dose in different patients; format: in vivo, human; settings: same dose of mifepristone
Method: In some embodiments, the assay can be performed as follows. Blood is collected from a patient in a vacutainer containing sodium heparin. The blood is centrifuged and the resulting plasma frozen at an appropriate temperature until assay. In some embodiments, the temperature is about −70° C. In other embodiments, other blood components can be collected and stored. Prior to analysis, the plasma is thawed and a fraction of the plasma is mixed with an internal standard in a solvent such as acetonitrile, to obtain a fixed concentration of the standard. In some embodiments, the internal standard can be mifepristone-d4. The concentration of the internal standard is selected in order to be greater than the expected concentration of mifepristone in the plasma. […]
The sample can then be analyzed by reverse-phase high pressure liquid chromatography (HPLC). […]
The reverse-phase HPLC column can be a phenyl column maintained at 50° C. […] Following elution, the mobile phase can be nebulized using heated nitrogen in a Z-spray source/interface and the ionized compounds detected using a tandem quadrupole mass spectrometer. Mifepristone (molecular weight of 430 g/mol) can be detected at m/z 372.30. The internal standard mifepristone-d4 can be detected at m/z 376.30. The ratio of the mifepristone peak height to the peak height for the internal standard can then be calculated. […]

[3] = species and route not given; cited from earlier work

Question: Which “proportion of patients with at least a 50% reduction from baseline in BPRS PSS scores at days 7 and 56” value ([1]; 1200 mg group (OC), all patients receiving the 1200 mg dose, FIG. 4) does the source give for `CC#C[C@]1(O)CC[C@H]2[C@@H]3CCC4=CC(=O)CCC4=C3[C@@H](c3ccc(N(C)C)cc3)C[C@@]21C` [Corlux, 17-beta-hydroxy-11-beta-(4-dimethyl-aminophenyl)-17-alpha-(1-propynyl)-estra-4,9-dien-3-one] here?
Answer: 47%

Question: And the “proportion of patients with at least a 50% reduction from baseline in BPRS PSS scores at days 7 and 56” value ([1]; 1200 mg group (OC), plasma levels <1357 ng/mL, FIG. 5)?
Answer: 31%

Question: What about the “proportion of patients with at least a 50% reduction from baseline in BPRS PSS scores at days 7 and 56” value ([1]; 1200 mg group (OC), plasma levels <1661 ng/mL, FIG. 6) of the same molecule?
Answer: 39%

Question: And the “proportion of patients with at least a 50% reduction from baseline in BPRS PSS scores at days 7 and 56” value ([1]; 1200 mg group (OC), plasma levels >1357 ng/mL, FIG. 5)?
Answer: 54%

Question: And the “proportion of patients with at least a 50% reduction from baseline in BPRS PSS scores at days 7 and 56” value ([1]; 1200 mg group (OC), plasma levels >1661 ng/mL, FIG. 6)?
Answer: 58%

Question: What about the “proportion of patients with at least a 50% reduction from baseline in BPRS PSS scores at days 7 and 56” value ([1]; all studies (OC), all patients receiving Corlux, FIG. 1) of the same molecule?
Answer: 35%

Question: And the “proportion of patients with at least a 50% reduction from baseline in BPRS PSS scores at days 7 and 56” value ([1]; all studies (OC), patients with plasma levels <1357 ng/mL, FIG. 2)?
Answer: 27%

Question: What about the “proportion of patients with at least a 50% reduction from baseline in BPRS PSS scores at days 7 and 56” value ([1]; all studies (OC), patients with plasma levels <1661 ng/mL, FIG. 3) of the same molecule?
Answer: 29%

Question: What about the “proportion of patients with at least a 50% reduction from baseline in BPRS PSS scores at days 7 and 56” value ([1]; all studies (OC), patients with plasma levels >1357 ng/mL, FIG. 2) of the same molecule?
Answer: 40%

Question: And the “proportion of patients with at least a 50% reduction from baseline in BPRS PSS scores at days 7 and 56” value ([1]; all studies (OC), patients with plasma levels >1661 ng/mL, FIG. 3)?
Answer: 44%

Question: And the “difference in blood serum levels from one patient to another” value [2]?
Answer: ≤ 800% and up to 800%

Question: What about the LD50 dose [3] of the same molecule?
Answer: about 1000 mg/kg
